# Data: patent US7273848B2, “Apolipoprotein A-I agonists and their use to treat dyslipidemic disorders” (priority 1997, dated 2007)
# Where “and” joins values, the source holds several entries; their conditions need not be identical. Identical values can stand only once. No end group written: not given here.
# What was measured:
# HDL cholesterol = HDL cholesterol in rabbits after injection of phospholipid/peptide complex; format: in vivo, rabbit; conditions: for Increase in HDL Cholesterol (%): 8 mg/kg i.v. as peptide/DPPC complexes
# Description: Small discoidal particles consisting of phospholipid (DPPC) and peptide 146 (SEQ ID NO:146) were prepared following the cholate dialysis method. The phospholipid was dissolved in chloroform and dried under a stream of nitrogen. The peptide was dissolved in buffer (saline) at a concentration of 1-2 mg/ml. The lipid film was redissolved in buffer containing cholate (43° C.) and the peptide solution was added at a 3-1 phospholipid/peptide ratio. The mixture was incubated overnight at 43° C. and then dialyzed at 43° C. (24 hr.), room temperature (24 hr.) and 4° C. (24 hr.), with three changes of buffer (large volumes) at temperature point. The complexes were filter sterilized (0.22μ) for injection and storage at 4° C.
# Male New Zealand White rabbits (2.5-3 kg) were injected intravenously with a dose of phospholipid/peptide complex (8 mg/kg bodyweight peptide 146 (SEQ ID NO:146) or 10 mg/kg bodyweight ApoA-I, expressed as peptide or protein content) in a single bolus injection not exceeding 10-15 ml. The animals were slightly sedated before the manipulations. Blood samples (collected on EDTA) were taken before and 5, 15, 30, 60, 240 and 1440 minutes after injection. The hematocrit (Hct) was determined for each sample. Samples were aliquoted and stored at −20° C. before analysis.
# Plasma Lipids. The total plasma cholesterol, plasma triglycerides and plasma phospholipids were determined enzymatically using commercially available assays according to the manufacturer's protocols (Boehringer Mannheim, Mannheim, Germany and Biomerieux, 69280, Marcy-l'étoile, France).
# Lipoprotein Profiles. The plasma lipoprotein profiles of the fractions obtained after the separation of the plasma into its lipoprotein fractions were determined by spinning in a sucrose density gradient. The fractions were collected and in each individual fraction the phospholipid and cholesterol content was measured enzymatically.
# [1] = Lipid binding by fluorescence spectroscopy
# Description: The lipid binding properties of the peptides synthesized in Section 6, supra, were tested by fluorescence measurements with labeled peptides, in the present case Tryptophane (Trp or W) or Naphtylalanine (Nal). The fluorescence spectra were recorded on a Fluoromax from Spex (Jobin-Yvon) equipped with a Xenon lamp of 150 W, two monochromators (excitation and emission), a photomultiplier R-928 for detection sensitive in the red up to 850 nm and a thermoelectric magnetic stirred cell holder. Quartz Suprasil cuvettes were used for measurements in the micromolar concentration range. A device of variable slits (from 0.4 to 5 nm) allows modulation of the incident and emitted intensities according to the concentration of peptide used. The reported values are in general the average of between 2 to 4 spectra. The peptide concentration is determined by absorption spectrometry on a Philips PU 8800 using the absorption band of the Trp (ε280 nm=5,550 M^−1 cm^−1 in Tris buffer) or the Nal (ε224 nm =92,770 M^−1 cm^−1 in methanol)
# Fluorescence spectra of the peptides were recorded between 290 nm and 450 nm in Tris-HCl buffer (20 mM, pH=7.5), in the presence and absence of lipidic vesicles. The small unilamellar vesicles were formed after rehydration in buffer of the lyophilized phospholipids, dispersion and tip sonification under a N2 stream. The lipids used were either Egg PC/Chol. (20:1) or POPC/Chol. (20:1). The spectra were recorded at a peptide concentration of 2 μM and at a temperature of 37° C. The fluorescence reference standard in the case of Trp was N-acetyltryptophanylamide (NATA).
# Lipid binding studies were done through progressive lipidic vesicle addition to the peptide in solution at 2 μM (slits: 5 nm in excitation and 1.5 nm in emission). Dilution effects were taken into account for the fluorescence intensity determination. The lipid concentrations were varied from 10 to 600 μM and the molar ratio of lipid to peptide (Ri) was varied from 5 to 300. The wavelength of excitation was set at 280 nm for both Trp and Nal.
# The data were directly recorded and treated by an IBM-PC linked to the spectrofluorimeter through the DM3000F software from Spex. The spectra were corrected by substraction of the solvent contribution and by application of a coefficient given by the constructor taking into account the variation of the photomultiplier response versus the wavelength.
# The fluorescence spectra of the peptides were characterized by the wavelength at their maximum of fluorescence emission and by their quantum yield compared to NATA in the case of peptides labeled with a tryptophane. The process of binding to lipids was analyzed by calculating the shift of the wavelength at the maximum of fluorescence emission, (λmax), and the variation of the relative fluorescence intensity of emission versus the lipid concentration. The relative fluorescence intensity is defined as the following ratio: (I-I0)λmax/I0λmax. I and I0 are both measured at the (λmax) corresponding to the initial free state of the peptide, i.e., without lipids. I is the intensity at a defined lipid to peptide ratio and I0 is the same parameter measured in absence of lipids. The absence of these variations is relevant of the absence of interactions of the peptides with the lipids.
sequence,measurement,setting,value
PVLELFENLLERLLDALQKKLK [peptide 146],duration of the increase in cholesterol of the HDL cholesterol fractions,"HDL cholesterol; 8 mg/kg as peptide/DPPC complexes, apparent at 5 min.",approximately 24 hr
same,Increase in HDL Cholesterol (%),HDL cholesterol; 5 min.,31.3%
same,Increase in HDL Cholesterol (%),HDL cholesterol; 15 min.,60.4%
same,Increase in HDL Cholesterol (%),HDL cholesterol; 60 min.,42.9%
same,Increase in HDL Cholesterol (%),"HDL cholesterol; 240 min., 8 mg/kg",90% and 90.2%
same,Increase in HDL Cholesterol (%),HDL cholesterol; 1440 min.,71.2%
same,mobilization of peripheral cholesterol (in words),HDL cholesterol; peptide/DPPC complexes 8 mg/kg,induces rapid and efficient mobilization of peripheral cholesterol
PVLELFENLWERLLDALQKKLK [peptide 149],lipid to peptide molar ratio at which burying of the tryptophane residue is maximal,[1]; EPC/Chol (20:1) SUVs,about 30
same,λmax (nm),"[1]; Ri 0 (buffer, no lipids), 2 μM",347 nm
same,I/Io,"[1]; Ri 0, 2 μM peptide, 37° C.",0
same,I/Io,[1]; Ri 5,19.7
same,λmax (nm),[1]; Ri 5,334.5 nm
same,I/Io,[1]; Ri 10,31.4
same,λmax (nm),[1]; Ri 10,329 nm
same,I/Io,[1]; Ri 30,49.4
same,λmax (nm),[1]; Ri 30,325.5 nm
same,I/Io,[1]; Ri 60,64.3
same,λmax (nm),[1]; Ri 60,325 nm
same,I/Io,[1]; Ri 100,77
same,λmax (nm),[1]; Ri 100,325.5 nm
same,I/Io,[1]; Ri 200,84
same,λmax (nm),[1]; Ri 200,325 nm
same,wavelength for the tryptophane maximum fluorescence emission after binding,[1]; bound to EPC/Chol (20:1) SUVs,325 nm
same,lipid binding (in words),[1]; small unilamellar vesicles,binds very effectively
